Reference: US7863313B2, “Methods for the treatment of inflammatory diseases” (Cortical PTY LTD, priority 2003, dated 2011)

tested on: MIF-induced proliferation of mouse NIH 3T3 fibroblasts; experiment: MIF-induced proliferation in mouse fibroblasts (3H-thymidine incorporation); assay type: cell-based; details: Compound (10×^10−6M) + MIF 50 ng/ml; nil 1087, MIF + vehicle 1452
Description: The activity of compounds was studied in a bioassay utilising MIF-induced proliferation of mouse NIH 3T3 fibroblasts. […] NIH 3T3 cells were propagated in DMEM/10% foetal calf serum (FCS). Prior to experimentation, cells were seeded at 10^4 cells/well in 96-well plates in DMEM/10% FCS for 18 hours. The media was then replaced with DMEM/0.1% FCS and the cells incubated for a further 18 hr. At time point −1 hr, culture medium was replaced with DMEM/0.1% FCS and cells were treated with a compound of the invention at a final concentration of 10 μM or vehicle. At time point zero, cells were treated with MIF at a final concentration of 50 ng/ml. At time point 6 hr the cells were pulsed with 1 µCi/well of ^3H-thymidine. At time point 24 hours, cells were harvested using a semi-automated cell harvester. The radioactivity incorporated into DNA was determined by liquid scintillation counting, with results expressed as ^3H-thymidine incorporation (cpm). Statistical significance was analysed using the Mann-Whitney test.

Point of comparison: `OCCCCC1(c2ccc(F)cc2)OCCO1` [Compound 10, 4-[2-(4-Fluorophenyl)-1,3-dioxolan-2-yl]butan-1-ol], “Mean cpm (3H-thymidine incorporation)” value 1187 cpm. Against it:
- COC(=O)CCCC1(c2ccc(F)cc2)OCCO1 [Compound 9, Methyl 4-[2-(4-fluorophenyl)-1,3-dioxolan-2-yl]butanoate] — lower, 1071 cpm
- CCCCC1(c2ccc(Br)cc2)OCCO1 [Compound 11, 2-(4′-Bromophenyl)-2-butyl-1,3-dioxolane] — higher, 1245 cpm
- COc1ccc(-c2ccc(OC(F)(F)F)cc2)c(OC)n1 [Compound 14, 2,6-Dimethoxy-3-[4-(trifluoromethoxy)phenyl]pyridine] — higher, 1420 cpm
- CCC1(c2ccc(OC)cc2)OCCO1 [Compound 16, 2-Ethyl-2-(4-methoxyphenyl)-1,3-dioxolane] — higher, 1335 cpm
- CCCCCCC1(c2ccc(C)cc2)OCCO1 [Compound 19, 2-Hexyl-2-(4-methylphenyl)-1,3-dioxolane] — higher, 1209 cpm
- CC1(c2ccc(Cl)cc2)OCCCO1 [Compound 20, 2-(4-Chlorophenyl)-2-methyl-1,3-dioxane] — higher, 1214 cpm
- CC1(c2ccc(Cl)cc2)OCCO1 [Compound 21, 2-(4-Chlorophenyl)-2-methyl-1,3-dioxolane] — higher, 1220 cpm
- Cc1ccc(C2(C)OCCCO2)cc1 [Compound 22, 2-Methyl-2-(4-methylphenyl)-1,3-dioxane] — higher, 1310 cpm
- Cc1ccc(C2(C)OCCO2)cc1 [Compound 23, 2-Methyl-2-(4-methylphenyl)-1,3-dioxolane] — higher, 1344 cpm
- CC1(c2ccc([N+](=O)[O-])cc2)OCCCO1 [Compound 26, 2-(4-Nitrophenyl)-2-methyl-1,3-dioxane] — lower, 1141 cpm
- COc1cc(C2OCCS2)cc(OC)c1OC (centres unmarked) [Compound 28, 2-(3,4,5-Trimethoxyphenyl)-1,3-oxathiolane] — higher, 1219 cpm
- CCCCC1(c2ccc(Br)cc2)OCCC(CCC)S1 (centres unmarked) [Compound 39, 2-(4-bromophenyl)-2-butyl-4-propyl-1,3-oxathiane] — lower, 956.1 cpm
- CCC1(c2ccc(Cl)cc2)OCC(C)O1 (centres unmarked) [Compound 42, 2-(4-Chlorophenyl)-2-ethyl-4-methyl-1,3-dioxolane] — lower, 1168 cpm
- Clc1ccc(C2=NCCO2)cc1 [Compound 44, 2-(4-Chlorophenyl)-4,5-dihydro-1,3-oxazole] — higher, 1294 cpm

tested on: LPS-IFN—induced nitrite production; experiment: MIF-dependent nitrite production in peritoneal macrophages (Greiss assay); assay type: cell-based, mouse; details: Mus musculus, Peritoneal macrophage; compound 1 μM; LPS 10 ng/ml + interferon-γ 10 units/ml, 24 h; read-out: % Inhibition of nitrite (± SD)
Description: MIF is able to induce or facilitate the expression and release of a wide variety of pro-inflammatory and/or destructive molecules, including the release of macrophage nitric oxide (NO) ^(20). A compound with the ability to inhibit the cytokine or biological function of MIF might be expected to inhibit the activation of NO production by macrophages.
C57BL6/J male mice were injected intraperitoneally with 2 ml of thioglycolate. Three days later peritoneal macrophages were collected by lavaging the peritoneum with 3 ml of cold Hank's buffered saline solution. Cells from several mice were pooled, washed and re-suspended in DMEM supplemented with 5% FCS. Cells were plated in 96 well plastic tissue culture plates at 1×10^5 cells/well. Cells were treated in triplicate wells with compound or vehicle for 1 hour in a 5% CO2 incubator at 37° C. Cells were then treated with LPS (10 ng/ml) and recombinant human interferon-γ (10 units/ml) and incubated for 24 hours. After 24 hours, 50 μl of supernatant from each well was carefully removed and transferred to ELISA plates. The production of NO was measured by analysing the concentration of nitrite in culture supernatants, as measured by the Greiss assay ^(21). The results were calculated as the percentage inhibition of nitrite concentration in compound-treated cell culture supernatants, compared to that of vehicle-treated cells.

`COC(=O)CCCC1(c2ccc(F)cc2)OCCO1` [Compound 9, Methyl 4-[2-(4-fluorophenyl)-1,3-dioxolan-2-yl]butanoate] showed an inhibition at 1 µM of 16 ± 1%.

same assay, conditions: Mus musculus, Peritoneal macrophage; compound 33 μM; LPS 10 ng/ml + interferon-γ 10 units/ml, 24 h; read-out: % Inhibition of nitrite (± SD)

`CCCCC1(c2ccc(Br)cc2)OCCO1` [Compound 11, 2-(4′-Bromophenyl)-2-butyl-1,3-dioxolane] gave an inhibition at 33 µM of 19 ± 1%.

same assay, conditions: Mus musculus, Peritoneal macrophage; compound 100 μM; LPS 10 ng/ml + interferon-γ 10 units/ml, 24 h; read-out: % Inhibition of nitrite (± SD)

Point of comparison: `CCCCC1(c2ccc(Br)cc2)OCCC(CCC)S1` (centres unmarked) [Compound 38, 2-(4-bromophenyl)-2-butyl-4-propyl-1,3-oxathiane], inhibition at 100 µM 35%. Against it:
- COc1ccc(-c2ccc(OC(F)(F)F)cc2)c(OC)n1 [Compound 14, 2,6-Dimethoxy-3-[4-(trifluoromethoxy)phenyl]pyridine] — lower, 27 ± 3%
- COc1ccc(C2OCCS2)cc1 (centres unmarked) [Compound 27, 2-(4-Methoxyphenyl)-1,3-oxathiolane] — lower, 24 ± 1%
- N#Cc1ccc(C2OCCS2)cc1 (centres unmarked) [Compound 30, 4-(1,3-Oxathiolan-2-yl)benzonitrile] — lower, 31 ± 2%
- CCC1(c2ccc(Br)cc2)OCCS1 (centres unmarked) [Compound 31, 2-(4-Bromophenyl)-2-ethyl-1,3-oxathiolane] — the same, 35 ± 3%
- CCCCCCCCC1(c2ccc(O)cc2)OC(C)CS1 (centres unmarked) [Compound 34, 4-(5-Methyl-2-octyl-1,3-oxathiolan-2-yl)phenol] — lower, 24 ± 1%
- CC1CSC(c2ccc(F)c(C#N)c2)O1 (centres unmarked) [Compound 35, 2-Fluoro-5-(5-methyl-1,3-oxathiolan-2-yl)benzenecarbonitrile] — lower, 18 ± 2%
- CCCCCCC1(c2cc(OC)cc(OC)c2)OCCO1 [Compound 41, 2-(3,5-Dimethoxyphenyl)-2-hexyl-1,3-dioxolane] — lower, 26 ± 1%
- Cc1ccc(C2=NCCO2)cc1 [Compound 45, 2-(4-Methylphenyl)-4,5-dihydro-1,3-oxazole] — lower, 7 ± 1%
